Results on 8 compounds are retold here after US4801616A, “Diphenylmethanone compounds and anti-inflammatory use thereof” (Eli Lilly and Company, priority 1986, dated 1989).

One assay has as its target T1, 5-lipoxygenase (Cavia porcellus, UniProt A0A286X958).
T1 construct: incubating 0.2 ml of the supernatant obtained from the PMNL sonicate with the test compound; from tissue; host or cells: casein-elicited guinea pig peritoneal polymorphonuclear leukocytes (PMNL, more than 95 percent of the cells), sonicated, 30,000 x g supernatant
T1 sequence (A0A286X958 1-674): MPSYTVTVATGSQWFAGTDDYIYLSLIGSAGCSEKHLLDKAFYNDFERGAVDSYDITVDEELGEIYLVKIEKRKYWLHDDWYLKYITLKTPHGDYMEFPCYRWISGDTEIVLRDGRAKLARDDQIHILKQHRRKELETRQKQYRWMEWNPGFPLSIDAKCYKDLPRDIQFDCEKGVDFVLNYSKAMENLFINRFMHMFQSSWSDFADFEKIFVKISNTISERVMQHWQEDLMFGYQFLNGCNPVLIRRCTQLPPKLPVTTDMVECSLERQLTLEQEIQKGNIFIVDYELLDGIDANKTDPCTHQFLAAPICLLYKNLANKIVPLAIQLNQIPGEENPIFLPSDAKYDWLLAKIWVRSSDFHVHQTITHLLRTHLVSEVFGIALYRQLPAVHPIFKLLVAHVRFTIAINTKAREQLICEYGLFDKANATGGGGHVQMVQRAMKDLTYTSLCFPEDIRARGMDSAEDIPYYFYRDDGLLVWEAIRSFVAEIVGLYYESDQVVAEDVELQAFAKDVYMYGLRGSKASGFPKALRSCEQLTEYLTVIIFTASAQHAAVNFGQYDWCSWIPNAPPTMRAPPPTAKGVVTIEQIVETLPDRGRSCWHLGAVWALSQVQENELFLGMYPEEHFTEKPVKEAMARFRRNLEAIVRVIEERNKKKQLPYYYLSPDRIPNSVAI
The assay can be described thus: 5-Lipoxygenase (5-LPO) Assay, inhibition of 5-HETE formation in PMNL sonicate supernatant. The format is biochemical, guinea pig. To be noted: for IC50: guinea pig PMNL sonicate supernatant, 37° C., 5 μM 14C-arachidonic acid. Here is the method:
5-Lipoxygenase (5-LPO) Assay
Ten milliliters of a 2% casein solution were injected intraperitoneally into guinea pigs weighing 250-300 gm. After 16-18 hours, the guinea pigs were killed by suffocation in a carbon dioxide chamber. The peritoneal cavity was infused with 70 ml of saline and 40-50 ml of the fluid were recovered from the cavity. After centrifugation, cell pellets were washed twice in Hank's balanced salt solution (HBSS) without calcium ion.
The cells were then suspended in 5 ml of sodium phosphate buffer, pH 7.1 containing 1 mM EDTA, and 0.1% gelatin. About 20-30×10^7 cells were obtained from one guinea pig.
The PMNL suspension was disrupted by five 1/2 second pulse sonications at the setting of 3 in a Branson Sonifier, Model 350, equipped with a microtip. The sonicates were combined and centrifuged at 30,000× g for 10 minutes. The supernatant was kept frozen at -70° C. until use.
Enzyme activity was determined by assaying for 5-HETE formation by first incubating 0.2 ml of the supernatant obtained from the PMNL sonicate with the test compound, 1 mM CaCl2, 2 mM ATP, and 1 mM GSH for 5 minutes at 37° C. The mixture is treated with 5 μM ^14 C-arachidonicacid and incubated at 37° C. an additional 10 minutes. The enzyme reaction was then stopped by the addition of 10 μl of 1M citric acid and 10μl of an alcohol solution containing 20 mg/ml each of indomethacin and butylated hydroxyanisole (BHA). The reaction mixture was spotted (50 μl on a silica gel plate (Baker TLC plate S1250-PA-19C) and subjected to TLC in a solvent system of ethyl acetate/2,2,4-trimethylpentane/glacial acetic acid/water (90:50:20:100).
The radioactivity of the arachidonic acid and its metabolites (5-HETE and LTB4) was visualized from a developed x-ray film which had been exposed to the TLC plate 1-2 days. The amount of 5-HETE formed was quantitated by scraping the silica gel area corresponding to the spot on the x-ray film, and the radioactivity determined in a Isocap/300 liquid scintillation counter (Searle Analytic, Inc.).
The percent inhibition of the formation of 5-HETE was determined for each concentration of test compound tested as compared to a control experiment wherein no test compound was added. The concentration and percent inhibition values were plotted on semi log paper and the concentration in which formation of 5-HETE is inhibited by 50% (IC50) was determined by interpolation.

In assay [1] the test system is Collagen-Induced Arthritis. Description: Collagen-Induced Arthritis Assay, hindpaw volume. To be noted: Rattus norvegicus, po, oral gavage, 5 days per week, 28 or 30 days, rats. The format is in vivo, rat (inbred Lewis male). How it is done:
Collagen-Induced Arthritis Assay
Type II collagen was isolated from bovine articular cartilage by the method of Strawich and Nimni Biochemistry, 10, 3905 (1971)]. The collagen was dissolved in 0.1 M acetic acid and stored at -20° C. Type II collagen solution was diluted to 2 mg/ml concentration and emulsified thoroughly with an equal volume of incomplete Freund's adjuvant (ICFA). The emulsion containing approximately 0.5 mg of collagen was injected intradermally on day 0 to groups of 6 inbred Lewis male rats (Charles River Breeders; 170-200 g) at various sites in the dorsal area. The hindpaw volumes of each rat were measured and recorded three times a week throughout the test period to assess the inflammatory reaction. The test group animals received compounds under test as suspensions in carboxymethylcellulose vehicle, by oral gavage, 5 days per week (Monday-Friday), beginning on day 1. Control animals received vehicle without a test compound. At the end of the test (day 28 or 30), the blood of these animals was drawn by cardiac puncture and the serum anti-type II collagen antibody levels were estimated by passive hemagglutination technique, using glutaraldehyde treated sheep red cells, to which type II collagen is conjugated [Avramaes et al., Immunochemistry, 6, 67 (1969); Andriopoulos et al., Arth. Rheum. 19, 613 (1976)]. The cellular response or delayed-type hypersensitivity response to type II collagen was measured by the radiometric ear index assay [Kostiala, Immunology, 33, 561 (1977)]. In certain experiments, the bone damage occurring because of immunization with type II collagen and the effects of drugs were determined from the radiographs of the hindpaws of two or three representative animals from each group. Injections of ICFA without collagen II were employed in some rats as a negative control; these rate received only carbomethoxycellulose vehicle during the test.
The % inhibition was calculated according to the following formula: [formula] where Vt is the hindpaw volume of a compound-treated animal (test group), Vc is the hindpaw volume of a non-compound-treated animal (carbomethoxycellulose vehicle only--the control group), and Vv is the hindpaw volume of a vehicle (carbomethoxycellulose) treated animal which received ICFA with no collagen II (negative control group).

Molecules are shown by their SMILES.

`CCCc1c(OCCCCCCCCc2nnn[nH]2)ccc(C(=O)c2ccccc2O)c1O` [Example 28, (2-Hydroxyphenyl)[2-hydroxy-3-propyl-4-([8-(1H-tetrazol-5-yl)octyl]oxy)phenyl]methanone] had an IC50 against 5-lipoxygenase of 1330 nM. In assay [1], this compound gave an inhibition in vivo at 3 mg/kg of 65%, an inhibition in vivo at 10 mg/kg of 48% and an inhibition in vivo at 30 mg/kg of 95%.
For the compound `CCCc1c(OCCCCc2nnn[nH]2)ccc(C(=O)c2ccccc2OC)c1O` [Example 23, (2-Hydroxy-3-propyl-4-[4-(1H-tetrazol-5-yl)butoxy]phenyl)(2-methoxyphenyl)methanone], half-maximal inhibition on 5-lipoxygenase (IC50) was put at 1710 nM. In assay [1], this compound registered an inhibition in vivo at 3 mg/kg of 33%, an inhibition in vivo at 10 mg/kg of 67% and an inhibition in vivo at 25 mg/kg of 69%.
In the case of `CCCc1c(O)ccc(C(=O)c2ccccc2O)c1O` [Example 4, (2,4-Dihydroxy-3-propylphenyl)(2hydroxyphenyl)methanone], inhibition against 5-lipoxygenase was half-maximal at 5880 nM (IC50). In assay [1], this compound registered an inhibition in vivo at 50 mg/kg of 47%.
At 5-lipoxygenase, `CCCc1c(OCCCCC#N)ccc(C(=O)c2ccccc2O)c1O` [Example 11, 5-[3-Hydroxy-4-(2-hydroxybenzoyl)-2-propylphenoxy]pentanenitrile] showed an IC50 of 2830 nM. Also, in assay [1], the inhibition in vivo at 10 mg/kg worked out at 0% and at 25 mg/kg the inhibition in vivo was 31%.
Regarding `COc1ccccc1C(=O)c1ccc(OC)c(C)c1O` [Example 9, (2-hydroxy-4-methoxy-3-methylphenyl)(2-methoxyphenyl)methanone], the IC50 against 5-lipoxygenase was 3670 nM. Testing at 50 mg/kg in assay [1] gave an inhibition in vivo of 0%.
For `CCCc1c(OCCCCc2nnn[nH]2)ccc(C(=O)c2ccccc2O)c1O` [Example 26, (2-Hydroxyphenyl)(2-hydroxy-3-propyl-4[4-(1H-tetrazol-5-yl)butoxy]phenyl)methanone], the IC50 against 5-lipoxygenase was 1260 nM. In assay [1], this compound came in with an inhibition in vivo at 3 mg/kg of 65%, an inhibition in vivo at 25 mg/kg of 71% and an inhibition in vivo at 30 mg/kg of 62%.
Take `CCCc1c(OCCCCCCc2nnn[nH]2)ccc(C(=O)c2ccccc2O)c1O` [Example 25, (2-Hydroxyphenyl)[2-hydroxy-3-propyl-4-([6-(1H-tetrazol-5-yl)hexyl]oxy)phenyl]methanone]: the IC50 against 5-lipoxygenase is 11800 nM. In addition, at 25 mg/kg the inhibition in vivo in assay [1] was 39%.
For `CCCc1c(OCCCCC(=O)O)ccc(C(=O)c2ccccc2O)c1O` [Example 30, 5-[3-Hydroxy-4-(2-hydroxybenzoyl)-2-propylphenoxy]pentanoic acid], on 5-lipoxygenase (percent inhibition at 10 μg/ml), the inhibition at 10 µg/mL was determined as 37%. In assay [1], at 50 mg/kg the inhibition in vivo was 24%.

One may read the IC50 as the concentration that gives 50% inhibition. By inhibition in vivo is commonly meant the share of the control response that was lost under treatment. A higher inhibition in vivo goes with a response far below the control. By inhibition is commonly meant the change of the read-out against control, counted positive when it falls.
